Measurements taken from ChEMBL document CHEMBL4507302, “Data for DCP probe TP-020” (2021).

How the values were obtained:
[1] = test system: Tyrosine-protein kinase ABL1 (Homo sapiens), P00519 [H396P]; settings: Compound concentration 1000.0 nM
[2] = biological target: Activin receptor type-2A (Homo sapiens) (UniProt P27037); settings: Compound concentration 1000.0 nM
[3] = biological target: RAC-alpha serine/threonine-protein kinase (Homo sapiens) (UniProt P31749); settings: Compound concentration 1000.0 nM
[4] = biological target: Tyrosine-protein kinase receptor UFO (Homo sapiens) (UniProt P30530); settings: Compound concentration 1000.0 nM
[5] = biological target: Serine/threonine-protein kinase B-raf (Homo sapiens) (UniProt P15056); settings: Compound concentration 1000.0 nM
[6] = biological target: Calcium/calmodulin-dependent protein kinase type 1 (Homo sapiens) (UniProt Q14012); settings: Compound concentration 1000.0 nM
[7] = biological target: Calcium/calmodulin-dependent protein kinase type II subunit alpha (Homo sapiens) (UniProt Q9UQM7); settings: Compound concentration 1000.0 nM
[8] = biological target: Cyclin-dependent kinase 2 (Homo sapiens) (UniProt P24941); settings: Compound concentration 1000.0 nM
[9] = biological target: Cyclin-dependent kinase 4 (Homo sapiens) (UniProt P11802); settings: Compound concentration 1000.0 nM
[10] = biological target: Cyclin-dependent kinase 4 (Homo sapiens) (UniProt P11802); settings: Compound concentration 1000.0 nM; remark: listed apart in the source
[11] = biological target: Cyclin-dependent kinase-like 5 (Homo sapiens) (UniProt O76039); settings: Compound concentration 1000.0 nM
[12] = biological target: Death-associated protein kinase 3 (Homo sapiens) (UniProt O43293); settings: Compound concentration 1000.0 nM
[13] = biological target: Epithelial discoidin domain-containing receptor 1 (Homo sapiens) (UniProt Q08345); settings: Compound concentration 1000.0 nM
[14] = biological target: Epidermal growth factor receptor (Homo sapiens) (UniProt P00533); settings: Compound concentration 1000.0 nM
[15] = test system: Epidermal growth factor receptor (Homo sapiens), P00533 [L858R]; settings: Compound concentration 1000.0 nM
[16] = biological target: Ephrin type-A receptor 4 (Homo sapiens) (UniProt P54764); settings: Compound concentration 1000.0 nM
[17] = biological target: Ephrin type-A receptor 6 (Homo sapiens) (UniProt Q9UF33); settings: Compound concentration 1000.0 nM
[18] = biological target: Homeodomain-interacting protein kinase 3 (Homo sapiens) (UniProt Q9H422); settings: Compound concentration 1000.0 nM
[19] = biological target: Serine/threonine-protein kinase STK11 (Homo sapiens) (UniProt Q15831); settings: Compound concentration 1000.0 nM
[20] = biological target: Leucine-rich repeat serine/threonine-protein kinase 2 (Homo sapiens) (UniProt Q5S007); settings: Compound concentration 1000.0 nM
[21] = test system: Leucine-rich repeat serine/threonine-protein kinase 2 (Homo sapiens), Q5S007 [G2019S]; settings: Compound concentration 1000.0 nM
[22] = biological target: Mitogen-activated protein kinase kinase kinase 2 (Homo sapiens) (UniProt Q9Y2U5); settings: Compound concentration 1000.0 nM
[23] = biological target: Mitogen-activated protein kinase kinase kinase 4 (Homo sapiens) (UniProt Q9Y6R4); settings: Compound concentration 1000.0 nM
[24] = biological target: Tyrosine-protein kinase Mer (Homo sapiens) (UniProt Q12866); settings: Compound concentration 1000.0 nM
[25] = biological target: Hepatocyte growth factor receptor (Homo sapiens) (UniProt P08581); settings: Compound concentration 1000.0 nM
[26] = biological target: Mitogen-activated protein kinase kinase kinase 9 (Homo sapiens) (UniProt P80192); settings: Compound concentration 1000.0 nM
[27] = biological target: Serine/threonine-protein kinase MRCK beta (Homo sapiens) (UniProt Q9Y5S2); settings: Compound concentration 1000.0 nM
[28] = biological target: Serine/threonine-protein kinase Nek1 (Homo sapiens) (UniProt Q96PY6); settings: Compound concentration 1000.0 nM
[29] = biological target: Calcium-dependent protein kinase 1 (Plasmodium falciparum) (UniProt P62344); settings: Compound concentration 1000.0 nM
[30] = biological target: Cyclin-dependent kinase 14 (Homo sapiens) (UniProt O94921); settings: Compound concentration 1000.0 nM
[31] = biological target: Phosphorylase b kinase regulatory subunit alpha, liver isoform (Homo sapiens) (UniProt P46019); settings: Compound concentration 1000.0 nM
[32] = test system: Phosphatidylinositol 4,5-bisphosphate 3-kinase catalytic subunit alpha isoform (Homo sapiens), P42336 [Q546K]; settings: Compound concentration 1000.0 nM
[33] = biological target: Phosphatidylinositol 5-phosphate 4-kinase type-2 gamma (Homo sapiens) (UniProt Q8TBX8); settings: Compound concentration 1000.0 nM
[34] = biological target: Serine/threonine-protein kinase D2 (Homo sapiens) (UniProt Q9BZL6); settings: Compound concentration 1000.0 nM
[35] = biological target: cGMP-dependent protein kinase 1 (Homo sapiens) (UniProt Q13976); settings: Compound concentration 1000.0 nM
[36] = biological target: Serine/threonine-protein kinase RIO3 (Homo sapiens) (UniProt O14730); settings: Compound concentration 1000.0 nM
[37] = biological target: Dual serine/threonine and tyrosine protein kinase (Homo sapiens) (UniProt Q6XUX3); settings: Compound concentration 1000.0 nM
[38] = biological target: Rho-associated protein kinase 1 (Homo sapiens) (UniProt Q13464); settings: Compound concentration 1000.0 nM
[39] = biological target: Rho-associated protein kinase 2 (Homo sapiens) (UniProt O75116); settings: Compound concentration 1000.0 nM
[40] = biological target: SRSF protein kinase 3 (Homo sapiens) (UniProt Q9UPE1); settings: Compound concentration 1000.0 nM
[41] = biological target: Tyrosine-protein kinase Tec (Homo sapiens) (UniProt P42680); settings: Compound concentration 1000.0 nM
[42] = biological target: Wee1-like protein kinase (Homo sapiens) (UniProt P30291); settings: Compound concentration 1000.0 nM
[43] = biological target: Serine/threonine-protein kinase WNK4 (Homo sapiens) (UniProt Q96J92); settings: Compound concentration 1000.0 nM
[44] = biological target: 5-hydroxytryptamine receptor 1B (Homo sapiens) (UniProt P28222); settings: Compound concentration 10.0 uM
[45] = biological target: D(1B) dopamine receptor (Homo sapiens) (UniProt P21918); settings: Compound concentration 10.0 uM
[46] = biological target: Muscarinic acetylcholine receptor M5 (Homo sapiens) (UniProt P08912); settings: Compound concentration 10.0 uM

Sequence of Cyclin-dependent kinase 4 (Homo sapiens) (P11802 whole entry): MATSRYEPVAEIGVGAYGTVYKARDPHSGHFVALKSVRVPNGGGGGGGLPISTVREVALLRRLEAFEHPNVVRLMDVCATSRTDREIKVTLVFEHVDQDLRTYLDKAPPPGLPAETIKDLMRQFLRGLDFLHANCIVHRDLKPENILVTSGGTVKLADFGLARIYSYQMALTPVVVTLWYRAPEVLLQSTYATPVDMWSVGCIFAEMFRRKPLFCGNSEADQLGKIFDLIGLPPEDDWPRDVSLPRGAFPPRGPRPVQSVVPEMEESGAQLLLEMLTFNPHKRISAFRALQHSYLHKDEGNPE
Sequence of Serine/threonine-protein kinase Nek1 (Homo sapiens) (Q96PY6 whole entry): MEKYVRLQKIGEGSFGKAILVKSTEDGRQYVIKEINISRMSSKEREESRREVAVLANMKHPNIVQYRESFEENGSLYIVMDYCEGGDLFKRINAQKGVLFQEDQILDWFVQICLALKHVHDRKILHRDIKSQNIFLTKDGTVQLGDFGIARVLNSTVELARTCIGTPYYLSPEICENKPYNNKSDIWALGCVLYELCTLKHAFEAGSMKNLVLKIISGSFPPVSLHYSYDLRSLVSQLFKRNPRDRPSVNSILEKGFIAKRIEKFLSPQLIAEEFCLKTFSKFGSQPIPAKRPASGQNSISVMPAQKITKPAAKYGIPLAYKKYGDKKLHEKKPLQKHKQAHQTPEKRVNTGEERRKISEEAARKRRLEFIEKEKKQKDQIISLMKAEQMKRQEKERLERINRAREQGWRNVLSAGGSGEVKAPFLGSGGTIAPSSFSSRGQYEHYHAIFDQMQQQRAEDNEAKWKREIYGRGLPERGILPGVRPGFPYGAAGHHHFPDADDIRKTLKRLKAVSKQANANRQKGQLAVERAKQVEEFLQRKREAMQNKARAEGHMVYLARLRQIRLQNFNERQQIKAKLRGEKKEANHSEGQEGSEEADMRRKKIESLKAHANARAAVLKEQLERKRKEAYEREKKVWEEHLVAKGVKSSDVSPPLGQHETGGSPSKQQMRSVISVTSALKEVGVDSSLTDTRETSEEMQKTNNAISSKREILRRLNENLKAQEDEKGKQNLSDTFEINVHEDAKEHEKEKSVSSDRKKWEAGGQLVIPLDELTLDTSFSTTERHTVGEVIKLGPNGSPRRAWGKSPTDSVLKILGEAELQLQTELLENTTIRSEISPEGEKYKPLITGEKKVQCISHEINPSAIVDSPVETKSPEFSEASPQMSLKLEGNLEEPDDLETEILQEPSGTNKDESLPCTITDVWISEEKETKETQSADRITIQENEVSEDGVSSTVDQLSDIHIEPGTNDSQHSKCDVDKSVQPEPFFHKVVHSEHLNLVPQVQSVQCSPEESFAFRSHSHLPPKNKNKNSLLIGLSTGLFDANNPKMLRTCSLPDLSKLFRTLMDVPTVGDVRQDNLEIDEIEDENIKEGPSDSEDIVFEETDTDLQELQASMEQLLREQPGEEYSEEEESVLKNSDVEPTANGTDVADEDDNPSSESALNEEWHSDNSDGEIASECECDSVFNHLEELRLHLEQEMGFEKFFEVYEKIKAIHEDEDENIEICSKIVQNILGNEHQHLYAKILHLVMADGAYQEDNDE
Sequence of Homeodomain-interacting protein kinase 3 (Homo sapiens) (Q9H422 whole entry, looked up): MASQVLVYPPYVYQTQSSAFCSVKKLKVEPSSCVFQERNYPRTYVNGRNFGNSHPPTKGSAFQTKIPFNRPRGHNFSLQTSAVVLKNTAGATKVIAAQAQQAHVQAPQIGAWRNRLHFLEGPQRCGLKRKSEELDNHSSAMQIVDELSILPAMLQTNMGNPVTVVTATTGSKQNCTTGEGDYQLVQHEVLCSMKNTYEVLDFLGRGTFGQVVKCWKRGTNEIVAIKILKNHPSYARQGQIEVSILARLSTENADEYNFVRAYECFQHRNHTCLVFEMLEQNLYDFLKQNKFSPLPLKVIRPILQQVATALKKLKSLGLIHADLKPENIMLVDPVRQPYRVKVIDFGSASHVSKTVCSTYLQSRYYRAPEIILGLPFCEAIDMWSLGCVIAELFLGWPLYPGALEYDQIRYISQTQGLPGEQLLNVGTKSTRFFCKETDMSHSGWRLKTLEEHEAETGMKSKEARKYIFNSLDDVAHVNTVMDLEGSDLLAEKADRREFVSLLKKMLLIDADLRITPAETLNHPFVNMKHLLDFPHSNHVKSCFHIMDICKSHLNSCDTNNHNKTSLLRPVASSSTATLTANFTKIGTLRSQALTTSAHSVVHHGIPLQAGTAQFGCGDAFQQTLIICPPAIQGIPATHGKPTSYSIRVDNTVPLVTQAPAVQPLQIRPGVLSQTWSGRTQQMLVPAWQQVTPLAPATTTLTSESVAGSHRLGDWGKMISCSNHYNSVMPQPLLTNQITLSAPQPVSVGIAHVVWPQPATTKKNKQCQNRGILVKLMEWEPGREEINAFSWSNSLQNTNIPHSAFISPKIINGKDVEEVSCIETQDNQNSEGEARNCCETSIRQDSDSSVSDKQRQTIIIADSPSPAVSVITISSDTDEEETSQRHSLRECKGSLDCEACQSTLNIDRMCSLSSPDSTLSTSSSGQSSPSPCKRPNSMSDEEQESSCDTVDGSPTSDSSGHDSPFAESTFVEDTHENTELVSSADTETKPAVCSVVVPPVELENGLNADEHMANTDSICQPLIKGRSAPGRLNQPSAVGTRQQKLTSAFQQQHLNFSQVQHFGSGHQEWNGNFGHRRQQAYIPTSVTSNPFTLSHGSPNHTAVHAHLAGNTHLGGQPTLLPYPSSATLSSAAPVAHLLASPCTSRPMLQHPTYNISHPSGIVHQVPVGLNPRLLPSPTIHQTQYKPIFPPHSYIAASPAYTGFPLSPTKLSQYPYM
Sequence of Ephrin type-A receptor 6 (Homo sapiens) (Q9UF33 whole entry): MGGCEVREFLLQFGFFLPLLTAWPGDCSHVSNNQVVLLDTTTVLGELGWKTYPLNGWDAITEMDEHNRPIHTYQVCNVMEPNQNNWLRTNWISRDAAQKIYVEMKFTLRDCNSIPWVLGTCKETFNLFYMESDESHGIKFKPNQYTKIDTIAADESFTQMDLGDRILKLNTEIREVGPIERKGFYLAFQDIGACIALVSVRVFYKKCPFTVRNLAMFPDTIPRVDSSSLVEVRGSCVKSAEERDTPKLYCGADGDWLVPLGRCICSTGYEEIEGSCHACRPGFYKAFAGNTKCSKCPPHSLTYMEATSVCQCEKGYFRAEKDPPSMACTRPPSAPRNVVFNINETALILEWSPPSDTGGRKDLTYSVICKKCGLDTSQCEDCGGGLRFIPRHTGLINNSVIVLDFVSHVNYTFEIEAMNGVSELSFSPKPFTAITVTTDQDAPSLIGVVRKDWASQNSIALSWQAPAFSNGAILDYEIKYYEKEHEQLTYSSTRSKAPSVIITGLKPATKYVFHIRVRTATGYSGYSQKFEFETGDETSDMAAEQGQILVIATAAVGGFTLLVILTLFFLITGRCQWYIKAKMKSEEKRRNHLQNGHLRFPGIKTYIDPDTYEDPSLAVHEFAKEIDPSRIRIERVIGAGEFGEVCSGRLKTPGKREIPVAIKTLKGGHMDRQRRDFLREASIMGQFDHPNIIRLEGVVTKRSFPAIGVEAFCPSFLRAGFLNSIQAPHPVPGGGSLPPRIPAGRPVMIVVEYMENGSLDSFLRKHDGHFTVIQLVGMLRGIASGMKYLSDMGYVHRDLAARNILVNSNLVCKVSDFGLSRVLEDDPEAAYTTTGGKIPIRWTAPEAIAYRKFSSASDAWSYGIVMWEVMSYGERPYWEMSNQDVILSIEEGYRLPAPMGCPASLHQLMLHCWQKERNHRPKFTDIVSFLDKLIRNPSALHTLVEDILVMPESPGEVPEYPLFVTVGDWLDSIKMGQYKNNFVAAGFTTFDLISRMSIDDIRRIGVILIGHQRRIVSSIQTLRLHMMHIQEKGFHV
Sequence of Serine/threonine-protein kinase RIO3 (Homo sapiens) (O14730 whole entry): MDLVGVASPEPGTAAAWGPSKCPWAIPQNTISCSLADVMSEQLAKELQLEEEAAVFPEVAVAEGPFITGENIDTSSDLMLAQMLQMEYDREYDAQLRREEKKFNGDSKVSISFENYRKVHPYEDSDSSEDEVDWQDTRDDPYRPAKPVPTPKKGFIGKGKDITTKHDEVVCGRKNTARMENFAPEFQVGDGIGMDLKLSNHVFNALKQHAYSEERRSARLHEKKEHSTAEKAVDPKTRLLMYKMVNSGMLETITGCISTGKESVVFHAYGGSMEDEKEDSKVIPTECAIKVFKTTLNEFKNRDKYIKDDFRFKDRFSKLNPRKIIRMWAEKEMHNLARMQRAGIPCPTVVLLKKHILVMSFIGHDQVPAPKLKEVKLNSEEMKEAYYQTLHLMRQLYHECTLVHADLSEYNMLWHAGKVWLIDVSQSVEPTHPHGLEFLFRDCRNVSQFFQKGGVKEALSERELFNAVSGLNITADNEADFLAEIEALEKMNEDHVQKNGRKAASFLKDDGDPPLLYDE
Sequence of Cyclin-dependent kinase 14 (Homo sapiens) (O94921 whole entry, canonical isoform): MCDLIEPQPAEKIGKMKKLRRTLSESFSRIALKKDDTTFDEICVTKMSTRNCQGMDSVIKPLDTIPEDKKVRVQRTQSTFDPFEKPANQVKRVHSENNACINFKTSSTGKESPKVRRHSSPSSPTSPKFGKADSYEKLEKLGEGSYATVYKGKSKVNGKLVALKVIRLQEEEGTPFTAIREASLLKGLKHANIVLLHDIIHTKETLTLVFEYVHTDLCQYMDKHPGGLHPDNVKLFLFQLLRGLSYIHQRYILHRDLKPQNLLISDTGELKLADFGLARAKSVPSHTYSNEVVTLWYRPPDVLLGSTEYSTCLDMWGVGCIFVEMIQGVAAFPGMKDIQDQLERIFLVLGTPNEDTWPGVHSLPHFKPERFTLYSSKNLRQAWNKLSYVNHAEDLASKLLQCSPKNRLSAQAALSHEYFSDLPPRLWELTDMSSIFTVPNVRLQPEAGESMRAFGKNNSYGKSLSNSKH

Cn1nc(C(F)(F)F)cc1-c1cnc(N2CCc3cc(S(=O)(=O)Nc4c(F)cc(Cl)cc4F)cc(N4CCCC4=O)c32)nc1 [TP-020]
inactive: residual activity [1] 81% | residual activity [2] 83% | residual activity [3] 100% | residual activity [4] 93% | residual activity [5] 82% | residual activity [6] 95% | residual activity [7] 75% | residual activity [8] 100% | residual activity [9] 68% | residual activity [10] 81% | residual activity [11] 91% | residual activity [12] 97% | residual activity [13] 100% | residual activity [14] 100% | residual activity [15] 100% | residual activity [16] 97% | residual activity [17] 89% | residual activity [18] 85% | residual activity [19] 100% | residual activity [20] 79% | residual activity [21] 93% | residual activity [22] 95% | residual activity [23] 100% | residual activity [24] 100% | residual activity [25] 100% | residual activity [26] 100% | residual activity [27] 94% | residual activity [28] 100% | residual activity [29] 70% | residual activity [30] 100% | residual activity [31] 96% | residual activity [32] 82% | residual activity [33] 66% | residual activity [34] 95% | residual activity [35] 87% | residual activity [36] 100% | residual activity [37] 83% | residual activity [38] 89% | residual activity [39] 85% | residual activity [40] 100% | residual activity [41] 79% | residual activity [42] 88% | residual activity [43] 83% | inhibition [44] 9.13% | inhibition [45] 42.5% | inhibition [46] 7.43%

Nc1cnc(N2CCc3cc(S(=O)(=O)Nc4c(F)cc(Cl)cc4F)cc(N4CCCC4=O)c32)nc1
inactive: residual activity [1] 94% | residual activity [2] 67% | residual activity [3] 100% | residual activity [4] 69% | residual activity [5] 98% | residual activity [6] 88% | residual activity [7] 92% | residual activity [8] 100% | residual activity [9] 97% | residual activity [10] 97% | residual activity [11] 88% | residual activity [12] 83% | residual activity [13] 100% | residual activity [14] 82% | residual activity [15] 85% | residual activity [16] 100% | residual activity [17] 98% | residual activity [18] 100% | residual activity [19] 100% | residual activity [20] 97% | residual activity [21] 81% | residual activity [22] 100% | residual activity [23] 85% | residual activity [24] 100% | residual activity [25] 69% | residual activity [26] 100% | residual activity [27] 95% | residual activity [29] 97% | residual activity [30] 100% | residual activity [31] 100% | residual activity [32] 78% | residual activity [33] 100% | residual activity [34] 100% | residual activity [35] 97% | residual activity [36] 100% | residual activity [37] 100% | residual activity [38] 96% | residual activity [39] 100% | residual activity [40] 100% | residual activity [41] 99% | residual activity [42] 72% | residual activity [43] 100% | inhibition [44] -3.82% | inhibition [45] 7.88% | inhibition [46] 1.45%
active: residual activity [28] 46%
